These are literature values, as cited in patent US20120316496A1, “USE OF COMPOSITIONS TO COAT CATHETER BALLOONS AND COATED CATHETER BALLOONS” (priority 2009, published 2012).

Each structure is given as a SMILES string.

The conditions of the series: at 20° C.
What is called vapor pressure is the equilibrium pressure above the liquid or solid. Turning to `C[S+](C)[O-]` [DMSO, dimethyl sulfoxide], the vapor pressure was 250 Pa.
For the compound `CCOC(C)=O` [Ethyl acetate], the vapor pressure is 9700 Pa.
With `CC12CCC(CC1=O)C2(C)C` (stereo not shown) [Camphor], the vapor pressure was 20 Pa.
With `OCCO` [Ethylene glycol], the vapor pressure is 5,3 Pa.
